Entries after “also recorded” stand apart in the source; their conditions may differ.
Assays:
[1] = test system: alpha-adrenergic receptor; test: Inhibition of epinephrine-induced pressor response (arterial blood pressure) in pentobarbital anesthetized rats; type: in vivo, Sprague-Dawley rats; conditions: for estimated pharmacologic half-life on alpha-adrenergic receptor antagonism: epinephrine 1.0 ug/kg iv challenge, pentobarbital anesthetized rats; for alpha-adrenergic antagonism in vivo: inhibition of the pressor effect of epinephrine challenge; for duration of action relative to that of phentolamine: 0.25 mg/kg iv each, four rats per treatment, alpha-adrenergic antagonism / duration of vasodilation (FIG. 1)
Method: (§1) Eight male normotensive Sprague-Dawley rats weighing between 350 to 380 grams were used in these studies. Animals were fed and watered ad libitum in a temperature (22 degrees and humidity (50%) controlled vivarium with a light dark cycle of 12 hours.
Epinephrine, D,L-piperoxan, and phentolamine (Sigma Chemical Company; St. Louis, Mo.) were solubilized in 0.9% saline on the day of the experiment. All doses were calculated on free base weight. The rats were anesthetized with pentobarbital sodium 60 mg/kg i.p. All animals were checked for depth of anesthesia before proceeding further using the corneal reflex and toe pinch response as indicators. The ventral surface of the neck was shaven and a longitudinal incision, approximately 2 cm long, was made on the ventral surface. The trachea was isolated and intubated (PE205; Intramedic, Parsippany, N.J.) . The left internal jugular vein and right common carotid artery were cannulated (PE50; Clay Adams, Becton Dickinson, Parsippany, N.J.). The cannulas were heparinized (Sodium heparin 60 units/ml) and inserted approximately 1.5 cm into the vessels and were secured with 4-0 silk suture. The animal was placed in the supine position, and body temperature was maintained via a heat lamp. A short piece of hypodermic tubing was inserted into the venous and arterial cannulas, and each cannula connected to a three way stopcock via a section of PE50 and 23 gauge Luer stub. The jugular line was used for administration of epinephrine and either piperoxan or phentolamine. In order to directly record arterial blood pressure, the carotid arterial line was connected to an electronic blood pressure transducer (P23db; Gould Electronics, Oxnard, Calif.). The blood pressure transducer was connected to a Gould transducer amplifier and a thermal recorder for the purpose of recording the arterial blood pressure waveform. After a stable blood pressure baseline was obtained, epinephrine was injected intravenously at a dose of 1.0 ug/kg for the purpose of inducing an alpha-adrenergic receptor mediated pressor response. This response was quantified by measurement of the arterial blood pressure waveform. After the epinephrine-induced pressor effect returned to baseline, either phentolamine or piperoxan was administered intravenously at a dose of 0.25 mg/kg. After dosing with piperoxan and phentolamine, epinephrine injections were repeated at 5, 10, 15, 20, 30, 40, 50, and 60 minutes post dosing. Arterial blood pressure was measured continuously during the length of the experiments.
Percent inhibition of the epinephrine-induced pressor effect by both phentolamine and piperoxan was used as a measure of inhibition of the alpha-adrenergic receptor. As stated previously, inhibition of the alpha receptor results in vasodilatation. Percent inhibition was calculated by the following formula: [formula]

[2] = test system: erectile dysfunction; conditions: cited from earlier work; for duration of action / erections: agents used to treat impotence, causing pain and general discomfort; for priapism or extremely long erections following treatment for erectile dysfunction: men treated for erectile dysfunction, literature
[3] = in water and acid solutions; cited from earlier work
[4] = cited from earlier work
[5] = test system: vascular alpha-adrenergic receptors; conditions: epinephrine 1.0 ug/kg iv; all rats tested
Method: as §1
Epinephrine, D,L-piperoxan, and phentolamine (Sigma Chemical Company; St. Louis, Mo.) were solubilized in 0.9% saline on the day of the experiment. All doses were calculated on free base weight. The rats were anesthetized with pentobarbital sodium 60 mg/kg i.p. All animals were checked for depth of anesthesia before proceeding further using the corneal reflex and toe pinch response as indicators. The ventral surface of the neck was shaven and a longitudinal incision, approximately 2 cm long, was made on the ventral surface. The trachea was isolated and intubated (PE205; Intramedic, Parsippany, N.J.) . The left internal jugular vein and right common carotid artery were cannulated (PE50; Clay Adams, Becton Dickinson, Parsippany, N.J.). […] This response was quantified by measurement of the arterial blood pressure waveform. […] Arterial blood pressure was measured continuously during the length of the experiments.
Percent inhibition of the epinephrine-induced pressor effect by both phentolamine and piperoxan was used as a measure of inhibition of the alpha-adrenergic receptor. […] Percent inhibition was calculated by the following formula: [formula]

Cc1ccc(N(CC2=NCCN2)c2cccc(O)c2)cc1 [phentolamine]
estimated pharmacologic half-life on alpha-adrenergic receptor antagonism ([1]; 0.25 mg/kg iv): greater than 60 minutes
alpha-adrenergic antagonism in vivo ([1]; 0.25 mg/kg iv): inhibitory to the pressor-induced effect of epinephrine challenge
duration of action / erections [2]: extremely long duration of action, resulting in erections which last several hours
priapism or extremely long erections following treatment for erectile dysfunction [2]: priapism or extremely long erections

COC(=O)[C@@H]1[C@H]2C[C@H]3c4[nH]c5ccccc5c4CCN3C[C@@H]2CC[C@@H]1O [yohimbine]
duration of action / erections [2]: extremely long duration of action, resulting in erections which last several hours

COc1ccc(Cc2nccc3cc(OC)c(OC)cc23)cc1OC [papaverine]
priapism or extremely long erections following treatment for erectile dysfunction [2]: priapism or extremely long erections

CC(COc1ccccc1)N(CCCl)Cc1ccccc1 (stereo not shown) [phenoxybenzamine]
priapism or extremely long erections following treatment for erectile dysfunction [2]: priapism or extremely long erections

c1ccc2c(c1)OCC(CN1CCCCC1)O2 (racemic) [piperoxan]
duration of action relative to that of phentolamine [1]: approximately one-half
duration of action relative to that of phentolamine ([1]; listed as Piperoxan): approximately half
biological half-life / duration of action compared with phentolamine ([1]; 0.25 mg/kg iv, FIG. 1): much shorter biological half-life; also recorded: shorter duration of action than phentolamine
estimated pharmacologic half-life on alpha-adrenergic receptor antagonism ([1]; 0.25 mg/kg iv): approximately 30 minutes
alpha-adrenergic antagonism in vivo ([1]; 0.25 mg/kg iv): inhibitory to the pressor-induced effect of epinephrine challenge; also recorded: alpha-adrenergic antagonist in vivo
solubility [3]: freely soluble
storage stability of aqueous solution ([4]; aqueous solution at pH 5.0, room temperature): many months of storage at room temperature
stability of aqueous solution to autoclaving ([4]; aqueous solution at pH 5.0): stable to autoclaving
hygroscopicity of crystals ([4]; crystals): not hygroscopic
stability of crystals ([4]; crystals, light, air, normal storage temperatures): stable to light, air, and normal storage temperatures

O=c1n(CCCN2CCN(c3cccc(Cl)c3)CC2)nc2ccccn12 [trazodone]
priapism or extremely long erections following treatment for erectile dysfunction [2]: priapism or extremely long erections

CNC[C@H](O)c1ccc(O)c(O)c1 [epinephrine]
arterial blood pressure change [5]: marked increase in arterial blood pressure in all rats tested

Source: patent US5583144A, “Methods for treating erectile impotence” (priority 1995, dated 1996)
